Legend:
[1] = test system: androgen-stimulated hair growth of flank organs; experiment: Golden Syrian hamster assay (flank organ hair mass); format: in vivo; details: topical, 10% dose, thirteen applications, vehicle A, B or C per compound; for Left(mg) (hair mass of the compound-treated flank organ): 10 μl once a day
Description: Male intact Golden Syrian hamsters are considered acceptable models for human beard hair growth and other androgen-stimulated hair growth in that they display oval shaped flank organs, one on each side, each about 8 mm. in major diameter, which grow thick black and coarse hair similar to human beard hair. These organs produce hair in response to androgens in the hamster. To evaluate the effectiveness of a composition in reducing androgen-stimulated hair growth, the flank organs of each of a group of hamsters are shaved. To one organ of each animal 10 μl. of composition vehicle alone once a day is applied, while to the other organ of each animal an equal amount of the composition (including the relevant compound or compounds). After thirteen applications (one application per day for five days a week), the flank organs are shaved and the amount of recovered hair (hair mass) from each is weighed. Percent-reduction of hair growth is calculated by subtracting the hair mass (mg) value of the test compound treated side from the hair mass value of the vehicle treated side; the delta value obtained is then divided by the hair mass value of the vehicle treated side, and the resultant number is multiplied by 100.
The above-described assay will be referred to herein as the "Golden Syrian hamster" assay. Preferred compositions provide a reduction in hair growth of at least about 30%, more preferably at least about 50%, and most preferably at least about 60% when tested in the Golden Syrian hamster assay.
A number of compositions containing compounds that induce or activate UGTs for which testosterone is a substrate were tested in the Golden Syrian hamster assay; the results are provided in Table I: […]

[2] = test system: glucuronidation of testosterone (UGTs); experiment: Induction of testosterone glucuronide formation in flank organ homogenates; format: biochemical, Golden Syrian hamster; details: flank organ protein, [14C]-testosterone 125 μM, UDP-glucuronic acid 5 mM, 37° C., 60 minutes
Method: An assay was performed to evaluate whether some of the compounds tested in the Golden Syrian Hamster assay caused an induction of testosterone glucuronide formation.
Flank organ homogenates were prepared by adding 4 flank organs into 2 mL of a buffer containing 25 mM Tris/50 mM sucrose, pH 7.4 and homogenized with a Polytron (Brinkman Instruments) while keeping the mixture on ice. The glucuronidation of testosterone was measured by incubating the 20 μl of the flank organ protein (1 mg/ml) with [^14 C]-testosterone testosterone 125 μM and UDP-glucuronic acid (5 mM) in the presence of buffer containing 0.5M Tris, pH 7.5 and 0.1M MgCl2. The total reaction mixture volume was 100 μl. Assay mixtures were incubated at 37° C. for 60 minutes, and reactions were stopped with the addition of 3.5 ml methylene chloride. An aqueous carrier (250 μl water) was added to each reaction mixture which was then shaken and centrifuged. The unmetabolized [^14 C]-testosterone remained in the organic phase whereas the testosterone glucuronide partitioned into the aqueous phase, and was quantitated by scintillation spectrometry.

flank organs = experiment: Flank organ diameter by caliper after topical treatment; format: in vivo, Golden Syrian hamster; details: for effect on flank organ diameter (in words): topical application; for % Decrease (flank organ diameter) / Decrease (mm) (flank organ diameter, treated vs vehicle) / Treated FO (mm) (flank organ diameter): topical treatment as in the hair mass assay
Method: It was believed that the diversion of testosterone away from its biologically active species to a glucuronide or sulfonate conjugate would have effects on the flank organs of the Golden Syrian hamster since testosterone is known to regulate the existence of these unique organs. The diameter of flank organs were assessed using a caliper following topical treatment of the hamsters with ethoxyquin or 5,7-dihydroxy-4'-methoxyflavone as described in the hair mass assay section.

| SMILES | Left(mg) (hair mass of the compound-treated flank organ) [1] | % Inhibition (percent reduction of hair growth vs vehicle-treated side) [1] [%] | % Induction (testosterone glucuronide formation) [2] [%] | effect on flank organ diameter (in words) (flank organs) | % Decrease (flank organ diameter) (flank organs) [%] | Decrease (mm) (flank organ diameter, treated vs vehicle) (flank organs) | Treated FO (mm) (flank organ diameter) (flank organs) |
| --- | --- | --- | --- | --- | --- | --- | --- |
| O=C1C[C@@H](c2ccc(O)cc2)Oc2cc(O)cc(O)c21 [naringenin] | 1.42 ± .18 mg | 40 ± 8 | – | – | – | – | – |
| COc1ccc(-c2cc(=O)c3c(O)cc(O)cc3o2)cc1 [5,7-dihydroxy-4'-methoxyflavone] | 1.00 ± .22 mg | 62 ± 9 | 120 | decrease in flank organ diameter | 12 ± 5 | 1.04 ± .46 mm | 8.04 ± .29 mm |
| Cc1cc(C(C)(C)C)c(O)c(C(C)(C)C)c1 [butylhydroxytoluene] | 1.74 ± .38 mg | 22 ± 18 | – | – | – | – | – |
| O=C1CC(c2ccccc2)Oc2ccccc21 (centres unmarked) [flavanone] | 1.91 ± .22 mg | 17 ± 10 | – | – | – | – | – |
| COc1ccc(O)c(C(C)(C)C)c1 [butylhydroxyanisole] | 0.92 ± .24 mg | 61 ± 9 | 178 | – | – | – | – |
| CCOc1ccc2c(c1)C(C)=CC(C)(C)N2 [ethoxyquin] | 0.55 ± .16 mg | 75 ± 7 | 214 | decrease in flank organ diameter | 19 ± 4 | 1.65 ± .37 mm | 7.18 ± .26 mm |
| CCC1(c2ccccc2)C(=O)NC(=O)NC1=O [phenobarbital, reference compound] | 0.89 ± .16 mg | 51 ± 11 | 113 | – | – | – | – |
